Reference: patent US7579504B2, “ABCA1 elevating compounds” (Gilead Sciences, Inc., priority 2005, dated 2009)

These compounds were tested on ABCA1 mRNA (assay: ABCA1 mRNA induction in THP-1 cells, QuantiGene branched DNA assay). Conditions: 10 μM, 18-20 hours.
Assay type: cell-based
Procedure: Modulation of expression of ABCA1 mRNA levels by the compounds of the invention was determined in the following assays.
Induction of ABC1 in THP-1 cells, was measured using QuantiGene® branched DNA assay as per manufacturer's instructions. Cultures of THP-1 were grown to subconfluence in DMEM/10% FBS before replacement with DMEM/BSA and 10 and 3 μM concentrations of the test compounds in DMSO for 18-20 hours. After treatment of cells with compounds, the cells were lysed with lysis buffer at 37° C. for 20 minutes. The cell lysate and ABCA1 specific probe (Genospectra, Inc., Fremont, Calif.) mix were added to the 96 well capture plate and hybridized at 53° C. for 16-18 hours. The signal was amplified using the amplifier and label probes provided with the QuantiGene® assay followed by addition of a luminescent alkaline phosphatase substrate, dioxitane. Luminescence was quantified in Victor V plate reader.
Step 1 • Cells are lysed to release mRNA in the presence of target probes. Target mRNA from lysed cells was then captured by hybridization and transferred to the Capture Plate.
Step 2 • Signal amplification was performed by hybridization of the bDNA Amplifier and Label Probe.
Step 3 • Addition of chemiluminescence substrate yielded a QuantiGene® signal proportional to the amount of mRNA present in the sample.
Table 1 presents the relative fold increase in ABCA1 expression over DMSO for compounds of the invention when tested at a concentration of 10 μM.
“N-[(4-methylphenyl)methyl](4-{[(naphthylsulfonyl)benzylamino]methyl}cyclohexyl)carboxamide [Compound 38]” was tested, and the “ABCA1 Induction Fold Increase over DMSO Vehicle” value was 5.0 fold.
For “{4-[({[4-(methylethyl)phenyl]sulfonyl}benzylamino)methyl]cyclohexyl}-N-[(4-methylphenyl)methyl]carboxamide [Compound 28]”, the “ABCA1 Induction Fold Increase over DMSO Vehicle” value was 2.7 fold.

Same assay, conditions: Homo sapiens, 18-20 hours, read-out: ABCA1 Induction Fold Increase over DMSO Vehicle
With `Cc1ccc(CNC(=O)C2CCC(CN(Cc3ccccc3)S(=O)(=O)c3cc(Cl)cc(Cl)c3)CC2)cc1` (stereo not drawn) [Compound 32, [4-({[(3,5-dichlorophenyl)sulfonyl]benzylamino}methyl)cyclohexyl]-N-[(4-methylphenyl)methyl]carboxamide] the fold induction at 10 µM was 4.
With `Cc1ccc(CNC(=O)C2CCC(CN(Cc3ccccc3)S(=O)(=O)c3ccc(F)cc3C)CC2)cc1` (stereo not drawn) [Compound 33, [4-({[(4-fluoro-2-methylphenyl)sulfonyl]benzylamino}methyl)cyclohexyl]-N-[(4-methylphenyl)methyl]carboxamide] the fold induction at 10 µM was 4.1.
In the case of `Cc1ccc(CNC(=O)C2CCC(CN(Cc3ccccc3)S(=O)(=O)c3c(C)cc(C)cc3C)CC2)cc1` (stereo not drawn) [Compound 34, N-[(4-methylphenyl)methyl][4-({benzyl[(2,4,6-trimethylphenyl)sulfonyl]amino}methyl)cyclohexyl]carboxamide], the fold induction at 10 µM is reported as 2.1.
In the case of `Cc1ccc(CNC(=O)C2CCC(CN(Cc3ccccc3)S(=O)(=O)c3ccccc3C(F)(F)F)CC2)cc1` (stereo not drawn) [Compound 35, N-[(4-methylphenyl)methyl]{4-[(benzyl{[2-(trifluoromethyl)phenyl]sulfonyl}amino)methyl]cyclohexyl}carboxamide], the fold induction at 10 µM is reported as 6.1.
For `Cc1ccc(CNC(=O)C2CCC(CN(Cc3ccccc3)S(=O)(=O)c3cccc(C(F)(F)F)c3)CC2)cc1` (stereo not drawn) [Compound 36, N-[(4-methylphenyl)methyl]{4-[(benzyl{[3-(trifluoromethyl)phenyl]sulfonyl}amino)methyl]cyclohexyl}carboxamide], the fold induction at 10 µM was 2.7.
`Cc1ccc(CNC(=O)C2CCC(CN(Cc3ccccc3)S(=O)(=O)c3c(F)c(F)c(F)c(F)c3F)CC2)cc1` (stereo not drawn) [Compound 37, N-[(4-methylphenyl)methyl][4-({[(2,3,4,5,6-pentafluorophenyl)sulfonyl]benzylamino}methyl)cyclohexyl]carboxamide] showed a fold induction at 10 µM of 3.
In the case of `Cc1ccc(CNC(=O)C2CCC(CN(Cc3ccccc3)S(=O)(=O)c3ccc(C)c(F)c3)CC2)cc1` (stereo not drawn) [Compound 39, [4-({[(3-fluoro-4-methylphenyl)sulfonyl]benzylamino}methyl)cyclohexyl]-N-[(4-methylphenyl)methyl]carboxamide], the fold induction at 10 µM is reported as 4.
For `Cc1ccc(CNC(=O)C2CCC(CN(Cc3ccccc3)S(=O)(=O)c3ccc(F)c(Cl)c3)CC2)cc1` (stereo not drawn) [Compound 40, [4-({[(3-chloro-4-fluorophenyl)sulfonyl]benzylamino}methyl)cyclohexyl]-N-[(4-methylphenyl)methyl]carboxamide], the fold induction at 10 µM was 2.6.
In the case of `Cc1ccc(CNC(=O)C2CCC(CN(Cc3ccccc3)S(=O)(=O)c3ccc4ccccc4c3)CC2)cc1` (stereo not drawn) [Compound 41, N-[(4-methylphenyl)methyl](4-{[(2-naphthylsulfonyl)benzylamino]methyl}cyclohexyl)carboxamide], the fold induction at 10 µM is reported as 5.2.
`Cc1ccc(CNC(=O)C2CCC(CN(Cc3ccccc3)S(=O)(=O)c3ccc(Cl)c(Cl)c3)CC2)cc1` (stereo not drawn) [Compound 42, [4-({[(3,4-dichlorophenyl)sulfonyl]benzylamino}methyl)cyclohexyl]-N-[(4-methylphenyl)methyl]carboxamide] showed a fold induction at 10 µM of 2.6.
`Cc1ccc(CNC(=O)C2CCC(CN(Cc3ccccc3)S(=O)(=O)c3ccc(C)cc3)CC2)cc1` (stereo not drawn) [Compound 43, N-[(4-methylphenyl)methyl][4-({[(4-methylphenyl)sulfonyl]benzylamino}methyl)cyclohexyl]carboxamide] showed a fold induction at 10 µM of 5.4.
Compound `Cc1ccc(CNC(=O)C2CCC(CN(Cc3ccccc3)S(=O)(=O)c3ccc(Cl)cc3)CC2)cc1` (stereo not drawn) [Compound 44, [4-({[(4-chlorophenyl)sulfonyl]benzylamino}methyl)cyclohexyl]-N-[(4-methylphenyl)methyl]carboxamide] has a fold induction at 10 µM of 3.2.
`COc1ccc(S(=O)(=O)N(Cc2ccccc2)CC2CCC(C(=O)NCc3ccc(C)cc3)CC2)cc1` (stereo not drawn) [Compound 45, [4-({[(4-methoxyphenyl)sulfonyl]benzylamino}methyl)cyclohexyl]-N-[(4-methylphenyl)methyl]carboxamide] gave a fold induction at 10 µM of 4.3.
Compound `Cc1ccc(CNC(=O)C2CCC(CN(Cc3ccccc3)S(=O)(=O)c3cccc(Cl)c3F)CC2)cc1` (stereo not drawn) [Compound 46, [4-({[(3-chloro-2-fluorophenyl)sulfonyl]benzylamino}methyl)cyclohexyl]-N-[(4-methylphenyl)methyl]carboxamide] has a fold induction at 10 µM of 4.5.
Compound `Cc1ccc(CNC(=O)C2CCC(CN(Cc3ccccc3)S(=O)(=O)c3c(C)nn(C)c3C)CC2)cc1` (stereo not drawn) [Compound 47, N-[(4-methylphenyl)methyl][4-({benzyl[(1,3,5-trimethylpyrazol-4-yl)sulfonyl]amino}methyl)cyclohexyl]carboxamide] has a fold induction at 10 µM of 3.5.
In the case of `Cc1ccc(CNC(=O)C2CCC(CN(Cc3ccccc3)S(=O)(=O)c3ccc(-c4ccccc4)cc3)CC2)cc1` (stereo not drawn) [Compound 48, N-[(4-methylphenyl)methyl][4-({benzyl[(4-phenylphenyl)sulfonyl]amino}methyl)cyclohexyl]carboxamide], the fold induction at 10 µM is reported as 2.9.
